Test results from article PMC8001995, “Sea Anemone Kunitz-Type Peptides Demonstrate Neuroprotective Activity in the 6-Hydroxydopamine Induced Neurotoxicity Model” (Biomedicines, 2021).

Columns and labels:
[1] = DPPH radical scavenging cell free assay; conditions: 10 µM compound, 30 min, absorbance 520 nm, versus MeOH control, mean ± SEM of three independent replicates
Experimental: The 2,2-diphenyl-1-picryl-hydrazyl-hydrate (DPPH) radical scavenging activity was tested as described previously. The compound solutions (120 µL) were dispensed into wells of a 96-well microplate. The DPPH (Sigma-Aldrich, Germany) was dissolved in MeOH at concentration of 7.5 µM and the solution (30 µL) was added to each well. The concentrations of tested compounds in the mixtures were 10 µM. The mixtures were shaken and left for 30 min. The absorbance of the resulting solutions was measured at λ = 520 nm with a MultiscanFC plate reader (Thermo Fisher Scientific, Waltham, MA, USA). The scavenging of the DPPH radical in comparison with control (MeOH) (%) was calculated for each compound. Ascorbic acid at 10 µM was used as positive control.

Neuro-2a cells [2] = test: 6-Hydroxydopamine-induced cytotoxicity (neuroprotection), MTT; format: cell-based, murine; conditions: 25 µM 6-OHDA 24 h, no peptide; versus control
Experimental: (§1) Neuro-2a neuroblastoma cells (ATCC® CCL-131™) were obtained from American Type Culture Collection (Manassas, VA, USA). The cells were cultivated in DMEM medium (BioloT, St. Petersburg, Russia) supplemented with 10% of fetal bovine serum (BioloT, Russia) and 1% penicillin/streptomycin (BioloT, St. Petersburg, Russia) at 37 °C and 5% CO2. Initially, cells were incubated in cultural flasks until sub-confluent (~80%). For testing, Neuro-2a cells were seeded in 96-well plates and experiments were started after 24 h.
Neuro-2a cells were seeded at 1 × 10^4 cells/well in 96-well plates for studying of neuroprotective activity of peptides. The tested peptides were added to the cell monolayer and cells were incubated at 37 °C for 1 h. Then, the cells were exposed to 6-OHDA (Sigma-Aldrich, St. Louis, MO, USA) at 25 µM for 24 h at 37 °C with 5% CO2. Thereafter, the medium was replaced with clean serum-free medium, and the number of viable cells was determined by MTT assay. Neuro-2a cells were cultured without test compound or neurotoxins as the control group. Results were expressed in percentage of control as the mean ± SEM of three independent replicates.

Neuro-2a cells [3] = test: Intracellular ROS level, DCFH-DA probe, 6-OHDA-treated cells; format: cell-based, murine; conditions: 25 µM 6-OHDA 30 min, no peptide
Experimental: as §1
The level of intracellular ROS was measured using the ROS sensitive dye, 2,7-dichloro-fluorescein diacetate (DCFH-DA), as a probe. In brief, Neuro-2a cells were seeded in 96-well plates at 1 × 10^4 cells/well, culturing in the presence or absence of various concentrations of tested peptides for 1 h, and then 6-OHDA (25 µM) was added in each well for 30 min at 37 °C with 5% CO2. […] The fluorescence of 2,7-dichlorofluorescein (DCF) was detected with PHERAstar FS fluorescent plate reader (BMG Labtech, Ortenberg, Germany) at λex = 485 nm and λem = 518 nm. […] The cytoprotective effect of peptides and the increase in cell viability under their action was calculated as a percentage, taking the cell viability treated with 6-OHDA as 100%.

SMILES	Scavenging of DPPH Radicals [1] [%]	Viability of Neuro-2a cells treated with 6-OHDA (Neuro-2a cells [2]) [%]	ROS level in 6-OHDA-treated cells (Neuro-2a cells [3])
O=C1O[C@H]([C@@H](O)CO)C(O)=C1O [Ascorbic acid]	33.8 ± 2.4		
NCCc1cc(O)c(O)cc1O [Peptide 6-OHDA, 6-hydroxydopamine]		42.6	up to 130 % to the control level
